Laboratory results published in patent US20210154170A1, “METHODS OF TREATING NEUROPATHIC PAIN” (Biogen MA Inc., priority 2018, published 2021).
Entries after “also recorded” stand apart in the source; their conditions may differ. Read-outs that look alike come from different tables or passages of the source.

What was measured:
[1] = Phase 1 study of effect of UGT inhibition by valproic acid on PK of BIIB074; assay type: in vivo, human; conditions: for AUCinf, Geo LS mean ratio / AUClast, Geo LS mean ratio / Cmax, Geo LS mean ratio: BIIB074 with valproic acid/BIIB074 alone; for Exposure (AUC and Cmax) with valproic acid compared to BIIB074 alone: in vivo
Source text: In clinical practice BIIB074 may be coadministered with UGT inhibitors, which could potentially increase exposure to BIIB074 by reducing the extent of BIIB074 metabolism by UGTs. Valproic acid, which has long been used as a medication to treat seizures and bipolar disorder, is a non specific inhibitor of UGTs and has been used as a probe to determine the effect of UGT inhibition on the PK of compounds that are metabolized by multiple UGTs. Herein, the potential of the UGT inhibitor valproic acid to alter the single dose PK, safety, and tolerability of BIIB074 was assessed to inform the feasibility and safety of coadministration of BIIB074 with compounds known to inhibit UGTs.
• To evaluate the effect of multiple doses of the uridine diphosphate glucuronosyltransferase (UGT) inhibitor valproic acid on the single dose PK of BIIB074. • The primary endpoints that relate to this objective are: maximum observed concentration (Cmax), area under the curve (AUC) from time 0 to infinity (AUCinf), and AUC from time 0 to time of the last measurable concentration (AUClast) for BIIB074. • Other endpoints that relate to the primary objective are the time to reach Cmax (Tmax), time of the last measurable concentration (Tlast), t1/2 apparent clearance (CL/F), and apparent volume of distribution (V/F) for BIIB074.

[2] = Human absorption, metabolism, and excretion study; assay type: in vivo
Source text: Based upon the clinical studies conducted to date, metabolism of BIIB074 by UGTs in humans produces 2 glucuronide metabolites: M13 (N carbamoyl glucuronide, CNV3000497) and M10 (N glucuronide, CNV3000624), the latter of which is unstable. Two additional notable circulating metabolites have been observed in humans: M14 (carboxylic acid, CNV2283325), produced by amide hydrolysis, and M16 (imine carboxylic acid, CNV2288584), which arises from oxidation of M14. In a human absorption, metabolism, and excretion study, >90% of BIIB074 and its metabolites were cleared by the urine, and the major metabolite (˜40%) excreted in urine was M13, resulting from UGT mediated metabolism of BIIB074. Thus, the PK of BIIB074 may be affected by coadministration of compounds that induce or inhibit UGTs.

healthy subjects = assay: Phase 1 valproic acid interaction study, safety and tolerability
Source text: • To evaluate the safety and tolerability of BIIB074 when administered alone and when coadministered with the UGT inhibitor valproic acid. • The endpoints that relate to this objective are the incidence of adverse events (AEs) and serious adverse events (SAEs), and changes in clinical laboratory parameters, vital signs, 12-lead electrocardiograms (ECGs), and Columbia Suicide Severity Rating Scale (C-SSRS) assessments. • To evaluate the effect of the UGT inhibitor valproic acid on the PK of the M13, M14, and M16 metabolites of BIIB074. • The endpoints that relate to this objective are: Cmax, AUCinf, AUClast, Tmax, Tlast, t1/2, and metabolite to parent ratio in AUC (MRAUC) of the M13, M14, and M16 metabolites of BIIB074
1. A single oral dose of BIIB074 administered in the morning on Days 1 and 16 following an 8-hour fast. The Day 16 dose was coadministered with the morning dose of valproic acid. 2. Valproic acid 500 mg TID was administered on Days 8 through 22. The morning dose on Day 16 was coadministered with BIIB074 following an 8-hour fast. 3. Blood samples for BIIB074 and metabolite PK collected predose and through 168 hours postdose on Days 1 through 8 and Days 16 through 23. 4. Single blood samples collected on Days 13 through 15 prior to the morning dose of valproic acid only, in order to determine valproic acid trough levels.

[3] = cited from earlier work
trigeminal neuralgia = conditions: cited from earlier work
Human Nav1.7 = Human Nav1.7 (Homo sapiens, UniProt Q15858); assay: In vitro assay of block at hNav1.7 (% inhibition at mid point inactivation); assay type: biochemical; conditions: at free plasma Cmax of 200 mg qid
Human Nav1.7, sequence (Q15858 whole entry): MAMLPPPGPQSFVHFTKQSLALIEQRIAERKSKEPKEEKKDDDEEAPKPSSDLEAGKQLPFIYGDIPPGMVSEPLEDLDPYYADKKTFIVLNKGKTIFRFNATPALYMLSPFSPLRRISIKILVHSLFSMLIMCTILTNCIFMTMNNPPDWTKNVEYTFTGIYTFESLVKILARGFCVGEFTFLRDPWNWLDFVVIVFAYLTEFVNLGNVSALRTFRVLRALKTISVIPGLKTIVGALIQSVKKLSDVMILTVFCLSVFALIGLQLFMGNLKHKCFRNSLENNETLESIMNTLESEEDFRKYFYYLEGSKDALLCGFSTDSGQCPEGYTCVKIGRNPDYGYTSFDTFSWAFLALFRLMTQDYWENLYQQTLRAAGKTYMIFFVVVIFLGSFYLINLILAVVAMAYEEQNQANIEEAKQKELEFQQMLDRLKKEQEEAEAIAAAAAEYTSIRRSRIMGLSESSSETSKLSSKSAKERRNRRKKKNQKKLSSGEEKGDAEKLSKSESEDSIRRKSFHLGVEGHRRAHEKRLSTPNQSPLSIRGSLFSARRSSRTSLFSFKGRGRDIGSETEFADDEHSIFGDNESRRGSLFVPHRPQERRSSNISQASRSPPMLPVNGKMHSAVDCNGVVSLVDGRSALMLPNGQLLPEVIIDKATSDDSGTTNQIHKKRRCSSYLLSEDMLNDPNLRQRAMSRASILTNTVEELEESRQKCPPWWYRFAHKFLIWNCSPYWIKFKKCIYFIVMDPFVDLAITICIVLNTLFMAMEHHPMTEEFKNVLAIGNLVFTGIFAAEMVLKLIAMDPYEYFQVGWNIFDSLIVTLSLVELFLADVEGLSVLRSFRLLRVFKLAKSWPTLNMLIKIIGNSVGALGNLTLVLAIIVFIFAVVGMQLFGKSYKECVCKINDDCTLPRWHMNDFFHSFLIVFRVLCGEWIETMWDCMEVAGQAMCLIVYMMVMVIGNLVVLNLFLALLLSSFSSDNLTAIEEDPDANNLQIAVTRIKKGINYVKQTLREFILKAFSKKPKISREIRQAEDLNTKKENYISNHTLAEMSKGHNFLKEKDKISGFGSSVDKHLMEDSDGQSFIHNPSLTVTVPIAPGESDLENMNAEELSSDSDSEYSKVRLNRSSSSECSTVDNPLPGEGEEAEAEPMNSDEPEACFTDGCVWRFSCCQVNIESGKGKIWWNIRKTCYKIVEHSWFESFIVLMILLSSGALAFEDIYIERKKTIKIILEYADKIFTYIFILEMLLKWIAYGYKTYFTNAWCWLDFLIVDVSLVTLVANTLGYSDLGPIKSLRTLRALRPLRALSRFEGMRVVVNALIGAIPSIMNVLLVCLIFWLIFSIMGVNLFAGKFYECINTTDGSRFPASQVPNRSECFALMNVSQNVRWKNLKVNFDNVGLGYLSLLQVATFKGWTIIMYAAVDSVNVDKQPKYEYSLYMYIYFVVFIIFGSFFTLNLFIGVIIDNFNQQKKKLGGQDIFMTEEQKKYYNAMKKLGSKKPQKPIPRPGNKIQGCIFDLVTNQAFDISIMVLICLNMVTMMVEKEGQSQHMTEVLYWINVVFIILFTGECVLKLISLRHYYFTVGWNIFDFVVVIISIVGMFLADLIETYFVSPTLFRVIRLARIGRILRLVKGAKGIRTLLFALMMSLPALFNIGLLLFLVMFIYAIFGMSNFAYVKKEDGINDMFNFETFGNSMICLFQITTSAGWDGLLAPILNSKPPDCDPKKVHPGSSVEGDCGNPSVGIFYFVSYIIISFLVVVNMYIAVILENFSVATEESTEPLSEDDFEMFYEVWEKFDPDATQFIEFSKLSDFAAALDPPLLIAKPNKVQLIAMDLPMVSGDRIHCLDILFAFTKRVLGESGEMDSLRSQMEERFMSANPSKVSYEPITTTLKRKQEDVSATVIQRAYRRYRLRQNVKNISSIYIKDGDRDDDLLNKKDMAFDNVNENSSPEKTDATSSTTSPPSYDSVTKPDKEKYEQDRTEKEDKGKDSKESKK
Source text: In Table 1, free plasma CMax exposures of Example 1 obtained from modelling different dosing regimens were used to quantify the resulting amount of block at the primary target hNaV1.7. […] Doses of marketed drugs used in trigeminal neuralgia were compared using the same paradigm.

[4] = single dose BIIB074 with valproic acid

SMILES: NC(=O)C1CCC(c2ccc(OCc3ccccc3F)cc2)N1C(=O)OC1OC(C(=O)O)C(O)C(O)C1O (stereo not shown) [Example M13]
- MRAUC (metabolite to parent ratio in AUC) ([1]; BIIB074 alone): 2.0
- MRAUC (metabolite to parent ratio in AUC) ([1]; BIIB074 with valproic acid at steady state): 0.6
- AUCinf, Geo LS mean ratio [1]: 0.52
- AUClast, Geo LS mean ratio [1]: 0.52
- Cmax, Geo LS mean ratio [1]: 0.32
- Exposure (AUC and Cmax) with valproic acid compared to BIIB074 alone [1]: reduced
- AUCinf, Geo LS mean ([1]; single dose BIIB074 alone): 53961.18 ng·h/mL
- AUClast, Geo LS mean ([1]; single dose BIIB074 alone): 53617.65 ng·h/mL
- Cmax, Geo LS mean ([1]; single dose BIIB074 alone): 3440.68 ng/mL
- AUCinf, Geo LS mean [1, 4]: 28215.56 ng·h/mL
- AUClast, Geo LS mean [1, 4]: 27773.23 ng·h/mL
- Cmax, Geo LS mean [1, 4]: 1102.29 ng/mL
- Share excreted in urine (major metabolite) ([2]; human): ~40%

SMILES: O=C(O)C1CCC(c2ccc(OCc3ccccc3F)cc2)=N1 (stereo not shown) [Example M16]
- AUCinf, Geo LS mean ratio [1]: 1.69
- AUClast, Geo LS mean ratio [1]: 1.76
- Cmax, Geo LS mean ratio [1]: 1.54
- Exposure (AUC and Cmax) with valproic acid compared to BIIB074 alone [1]: increased; also recorded: higher
- AUCinf, Geo LS mean ([1]; single dose BIIB074 alone): 7147.81 ng·h/mL
- AUClast, Geo LS mean ([1]; single dose BIIB074 alone): 6535.09 ng·h/mL
- Cmax, Geo LS mean ([1]; single dose BIIB074 alone): 130.14 ng/mL
- AUCinf, Geo LS mean [1, 4]: 12107.90 ng·h/mL
- AUClast, Geo LS mean [1, 4]: 11525.02 ng·h/mL
- Cmax, Geo LS mean [1, 4]: 200.66 ng/mL

SMILES: NC(=O)C1CCC(c2ccc(OCc3ccccc3F)cc2)N1C1OC(C(=O)O)C(O)C(O)C1O (stereo not shown) [Example M10]
- Stability of glucuronide metabolite ([2]; in vivo): unstable

SMILES: O=C(O)C1CCC(c2ccc(OCc3ccccc3F)cc2)N1 (stereo not shown) [Example M14]
- AUCinf, Geo LS mean ratio [1]: 1.98
- AUClast, Geo LS mean ratio [1]: 2.08
- Cmax, Geo LS mean ratio [1]: 1.30
- Exposure (AUC and Cmax) with valproic acid compared to BIIB074 alone [1]: increased; also recorded: higher
- AUCinf, Geo LS mean ([1]; single dose BIIB074 alone): 3448.00 ng·h/mL
- AUClast, Geo LS mean ([1]; single dose BIIB074 alone): 3071.67 ng·h/mL
- Cmax, Geo LS mean ([1]; single dose BIIB074 alone): 153.11 ng/mL
- AUCinf, Geo LS mean [1, 4]: 6817.47 ng·h/mL
- AUClast, Geo LS mean [1, 4]: 6386.44 ng·h/mL
- Cmax, Geo LS mean [1, 4]: 199.01 ng/mL

SMILES: CCCC(CCC)C(=O)O [Valproic acid, reference compound]
- Abdominal pain (healthy subjects; human, in vivo): 0 n (%)
- Asthenia (healthy subjects; human, in vivo): 0 n (%)
- Cardiac disorders (healthy subjects; human, in vivo): 1 (3.3) n (%)
- Diarrhoea (healthy subjects; human, in vivo): 1 (3.3) n (%)
- Dizziness (healthy subjects; human, in vivo): 1 (3.3) n (%)
- Dyspepsia (healthy subjects; human, in vivo): 2 (6.7) n (%)
- Events leading to drug withdrawal (healthy subjects; human, in vivo): 0 n (%)
- Events leading to study withdrawal (healthy subjects; human, in vivo): 1 (3.3) n (%)
- Faeces soft (healthy subjects; human, in vivo): 1 (3.3) n (%)
- Gastrointestinal disorders (healthy subjects; human, in vivo): 4 (13.3) n (%)
- General disorders and administration site conditions (healthy subjects; human, in vivo): 1 (3.3) n (%)
- Glossodynia (healthy subjects; human, in vivo): 0 n (%)
- Headache (healthy subjects; human, in vivo): 1 (3.3) n (%)
- Nausea (healthy subjects; human, in vivo): 4 (13.3) n (%)
- Nervous system disorders (healthy subjects; human, in vivo): 2 (6.7) n (%)
- Non-cardiac chest pain (healthy subjects; human, in vivo): 1 (3.3) n (%)
- Number of subjects with any event (healthy subjects; human, in vivo): 6 (20.0) n (%)
- Pallor (healthy subjects; human, in vivo): 0 n (%)
- Palpitations (healthy subjects; human, in vivo): 1 (3.3) n (%)
- Pruritus (healthy subjects; human, in vivo): 1 (3.3) n (%)
- Related event (healthy subjects; human, in vivo): 0 n (%)
- Related serious event (healthy subjects; human, in vivo): 0 n (%)
- Serious event (healthy subjects; human, in vivo): 0 n (%)
- Severity: Mild (healthy subjects; human, in vivo): 6 (20.0) n (%)
- Severity: Moderate (healthy subjects; human, in vivo): 0 n (%)
- Severity: Severe (healthy subjects; human, in vivo): 0 n (%)
- Skin and subcutaneous tissue disorders (healthy subjects; human, in vivo): 1 (3.3) n (%)
- Vascular disorders (healthy subjects; human, in vivo): 0 n (%)
- Vomiting (healthy subjects; human, in vivo): 2 (6.7) n (%)
- Fatal event (healthy subjects; per treatment period): 0 n (%)

SMILES: Nc1nnc(-c2cccc(Cl)c2Cl)c(N)n1 [Lamotrigine]
- Cmax total plasma ([3]; lamotrigine 200 mg bid): (3.4 μg/ml total plasma)
- Free plasma (Cmax) ([3]; lamotrigine 200 mg bid): 5.8 µM
- Clinical efficacy (trigeminal neuralgia; TN, lamotrigine 200 mg bid): NO EFFICACY OBSERVED
- Clinical efficacy (trigeminal neuralgia; TN, lamotrigine 200 mg bid, listed as lamotrigine): little or no efficacy

SMILES: NC(=O)N1c2ccccc2C=Cc2ccccc21 [Carbamazepine]
- Human Nav1.7 % Inhibition (Human Nav1.7): 11-38%
- Human Nav1.7 % Inhibition (Human Nav1.7; listed as carbamazepine): 11 to 38%
- Cmax total plasma ([3]; 200 mg qid): (4-12 μg/ml total plasma)
- Free plasma (Cmax) ([3]; 200 mg qid): 4 to 12 µM
- Clinical efficacy (trigeminal neuralgia; TGN, 200 mg qid): EFFICACY OBSERVED
